Reference: ChEMBL document CHEMBL5236600, “Identification of a Novel Potent CYP4Z1 Inhibitor Attenuating the Stemness of Breast Cancer Cells through Lead Optimization” (J Med Chem, 2022)
pIC50: −log10 of the molar value. Activity calls are given as the source filed them. The calls are words filed in the database; no cut-off is given here.

Columns and labels:
[1] = test system: MDA-MB-231; assay: Inhibition of cell stemness in human MDA-MB-231 cells assessed as reduction in OCT3 expression at 0.8 to 51.2 uM by western blot analysis; format: functional, cell-based; details: dose 0.8-51.2 µM
[2] = test system: MDA-MB-231; assay: Antitumor activity against human MDA-MB-231 cells implanted in BALB/c mouse assessed as reduction in stem cell frequency administered drug pretreated cells subcutaneously and observed after 2 weeks; format: functional, cell-based; details: route sc
[3] = test system: MDA-MB-231; assay: Inhibition of cell invasion of human MDA-MB-231 cells at 0.8 to 51.2 uM incubated for 24 hrs by transwell invasion assay; format: functional, cell-based; details: dose 0.8-51.2 µM
[4] = test system: MCF7; assay: Antitumor activity against human MCF7 cells implanted in BALB/c mouse assessed as change in stem cell frequency administered drug pretreated cells subcutaneously and observed after 2 weeks by colligation test; format: functional, cell-based; details: route sc
[5] = test system: MDA-MB-231; assay: Antitumor activity against human MDA-MB-231 cells implanted in BALB/c mouse assessed as change in stem cell frequency administered drug pretreated cells subcutaneously and observed after 2 weeks by colligation test; format: functional, cell-based; details: route sc
[6] = test system: MCF7; assay: Antitumor activity against human MCF7 cells implanted in BALB/c mouse assessed as decrease in OCT4 expression administered drug pretreated cells subcutaneously and observed after 2 weeks by immunohistochemistry; format: functional, cell-based; details: route sc
[7] = Toxicity in mouse assessed as body weight loss at 2000 mg/kg,po administered for 7 days; format: organism-based; details: in vivo, 168 h, time 7 day
[8] = test system: MDA-MB-231; assay: Antitumor activity against human MDA-MB-231 cells implanted in BALB/c mouse assessed as decrease in Ki67 expression administered drug pretreated cells subcutaneously and observed after 2 weeks by immunohistochemistry; format: functional, cell-based; details: route sc
[9] = test system: MCF7; assay: Inhibition of cell stemness in human MCF7 cells assessed as reduction in P-gP expression at 0.8 to 51.2 uM by western blot analysis; format: functional, cell-based; details: dose 0.8-51.2 µM
[10] = test system: MCF7; assay: Antiproliferative activity against human MCF7 cells assessed as decrease in spheroid number at 3.2 to 51.2 uM incubated for 10 days; format: functional, cell-based; details: dose 3.2-51.2 µM, time 10.0 day
[11] = test system: MCF7; assay: Inhibition of cell stemness in human MCF7 cells assessed as reduction in ALDH1A1 expression at 0.8 to 51.2 uM by western blot analysis; format: functional, cell-based; details: dose 0.8-51.2 µM
[12] = test system: MDA-MB-231; assay: Antitumor activity against human MDA-MB-231 cells implanted in BALB/c mouse assessed as decrease in ALDH1A1 expression administered drug pretreated cells subcutaneously and observed after 2 weeks by immunohistochemistry; format: functional, cell-based; details: route sc
[13] = Stability in mouse plasma assessed as half life at 40 uM incubated upto 5 hrs by LC-MS/MS analysis; format: ADME, cell-free
[14] = test system: MCF7; assay: Antitumor activity against human MCF7 cells implanted in BALB/c mouse assessed as change in tumor weight administered drug pretreated cells subcutaneously and observed after 2 weeks; format: functional, cell-based; details: route sc
[15] = test system: MDA-MB-231; assay: Inhibition of cell stemness in human MDA-MB-231 cells assessed as reduction in Nanog expression at 0.8 to 51.2 uM by western blot analysis; format: functional, cell-based; details: dose 0.8-51.2 µM
[16] = test system: MCF7; assay: Antiproliferative activity against human MCF7 cells assessed as decrease in spheroid size at 3.2 to 51.2 uM incubated for 10 days; format: functional, cell-based; details: dose 3.2-51.2 µM, time 10.0 day
[17] = test system: MCF7; assay: Antitumor activity against human MCF7 cells implanted in BALB/c mouse assessed as decrease in Ki67 expression administered drug pretreated cells subcutaneously and observed after 2 weeks by immunohistochemistry; format: functional, cell-based; details: route sc
[18] = test system: MDA-MB-231; assay: Inhibition of cell migration of human MDA-MB-231 cells at 0.8 to 51.2 uM incubated for 24 hrs by wound healing assay; format: functional, cell-based; details: dose 0.8-51.2 µM
[19] = test system: MCF7; assay: Inhibition of cell stemness in human MCF7 cells assessed as reduction in SOX2 expression at 0.8 to 51.2 uM by western blot analysis; format: functional, cell-based; details: dose 0.8-51.2 µM
[20] = test system: MDA-MB-231; assay: Inhibition of cell stemness in human MDA-MB-231 cells assessed as reduction in SOX2 expression at 0.8 to 51.2 uM by western blot analysis; format: functional, cell-based; details: dose 0.8-51.2 µM
[21] = test system: MDA-MB-231; assay: Antiproliferative activity against human MDA-MB-231 cells assessed as decrease in CD44+/CD24- cell population at 0.8 to 51.2 uM incubated for 30 mins by flow cytometry analysis; format: functional, cell-based; details: dose 0.8-51.2 µM
[22] = test system: MCF7; assay: Antitumor activity against human MCF7 cells implanted in BALB/c mouse assessed as decrease in ALDH1A1 expression administered drug pretreated cells subcutaneously and observed after 2 weeks by immunohistochemistry; format: functional, cell-based; details: route sc
[23] = target: Cytochrome P450 3A4 (Homo sapiens, UniProt P08684); assay: Inhibition of human recombinant CYP3A4 using Luciferin-IPA as substrate incubated for 30 mins in presence of NADPH by luminescence based assay; format: ADME
Sequence of Cytochrome P450 3A4 (P08684 whole entry): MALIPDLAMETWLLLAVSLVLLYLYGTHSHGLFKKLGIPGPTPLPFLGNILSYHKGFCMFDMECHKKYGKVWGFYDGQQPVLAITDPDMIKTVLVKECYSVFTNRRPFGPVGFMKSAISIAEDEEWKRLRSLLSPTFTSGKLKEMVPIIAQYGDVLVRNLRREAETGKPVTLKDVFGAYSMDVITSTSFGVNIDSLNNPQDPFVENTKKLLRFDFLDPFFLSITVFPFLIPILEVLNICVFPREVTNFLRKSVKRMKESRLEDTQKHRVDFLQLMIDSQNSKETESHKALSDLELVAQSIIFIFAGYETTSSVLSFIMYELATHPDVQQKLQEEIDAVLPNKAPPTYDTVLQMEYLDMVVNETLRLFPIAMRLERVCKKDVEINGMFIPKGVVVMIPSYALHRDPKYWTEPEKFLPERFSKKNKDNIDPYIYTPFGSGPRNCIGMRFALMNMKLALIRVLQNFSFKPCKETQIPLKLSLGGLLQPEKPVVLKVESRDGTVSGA

[24] = test system: MDA-MB-231; assay: Inhibition of cell stemness in human MDA-MB-231 cells assessed as reduction in ALDH1A1 expression at 0.8 to 51.2 uM by western blot analysis; format: functional, cell-based; details: dose 0.8-51.2 µM
[25] = test system: MCF7; assay: Inhibition of cell stemness in human MCF7 cells assessed as reduction in OCT3 expression at 0.8 to 51.2 uM by western blot analysis; format: functional, cell-based; details: dose 0.8-51.2 µM
[26] = test system: MDA-MB-231; assay: Antitumor activity against human MDA-MB-231 cells implanted in BALB/c mouse assessed as change in tumor weight administered drug pretreated cells subcutaneously and observed after 2 weeks; format: functional, cell-based; details: route sc
[27] = test system: MCF7; assay: Antiproliferative activity against human MCF7 cells assessed as decrease in CD44+/CD24- cell population at 0.8 to 51.2 uM incubated for 30 mins by flow cytometry analysis; format: functional, cell-based; details: dose 0.8-51.2 µM
[28] = test system: MCF7; assay: Inhibition of cell migration of human MCF7 cells at 0.8 to 51.2 uM incubated for 48 hrs by wound healing assay; format: functional, cell-based; details: dose 0.8-51.2 µM
[29] = test system: MCF7; assay: Antiproliferative activity against human MCF7 cells assessed as cell growth inhibition incubated for 72 hrs by MTT assay; format: functional, cell-based; details: MCF7, 72 h
[30] = test system: MDA-MB-231; assay: Antiproliferative activity against human MDA-MB-231 cells assessed as decrease in spheroid size at 3.2 to 51.2 uM incubated for 10 days; format: functional, cell-based; details: dose 3.2-51.2 µM, time 10.0 day
[31] = test system: MCF7; assay: Antitumor activity against human MCF7 cells implanted in BALB/c mouse assessed as reduction in tumor formation ratio administered drug pretreated cells subcutaneously and observed after 2 weeks; format: functional, cell-based; details: route sc
[32] = test system: MCF7; assay: Antitumor activity against human MCF7 cells implanted in BALB/c mouse assessed as reduction in stem cell frequency administered drug pretreated cells subcutaneously and observed after 2 weeks; format: functional, cell-based; details: route sc
[33] = test system: MDA-MB-231; assay: Antitumor activity against human MDA-MB-231 cells implanted in BALB/c mouse assessed as decrease in OCT4 expression administered drug pretreated cells subcutaneously and observed after 2 weeks by immunohistochemistry; format: functional, cell-based; details: route sc
[34] = target: Cytochrome P450 2D6 (Homo sapiens, UniProt P10635); assay: Inhibition of human recombinant CYP2D6 using Luciferin-ME EGE as substrate incubated for 30 mins in presence of NADPH by luminescence based assay; format: ADME
Sequence of Cytochrome P450 2D6 (P10635 whole entry): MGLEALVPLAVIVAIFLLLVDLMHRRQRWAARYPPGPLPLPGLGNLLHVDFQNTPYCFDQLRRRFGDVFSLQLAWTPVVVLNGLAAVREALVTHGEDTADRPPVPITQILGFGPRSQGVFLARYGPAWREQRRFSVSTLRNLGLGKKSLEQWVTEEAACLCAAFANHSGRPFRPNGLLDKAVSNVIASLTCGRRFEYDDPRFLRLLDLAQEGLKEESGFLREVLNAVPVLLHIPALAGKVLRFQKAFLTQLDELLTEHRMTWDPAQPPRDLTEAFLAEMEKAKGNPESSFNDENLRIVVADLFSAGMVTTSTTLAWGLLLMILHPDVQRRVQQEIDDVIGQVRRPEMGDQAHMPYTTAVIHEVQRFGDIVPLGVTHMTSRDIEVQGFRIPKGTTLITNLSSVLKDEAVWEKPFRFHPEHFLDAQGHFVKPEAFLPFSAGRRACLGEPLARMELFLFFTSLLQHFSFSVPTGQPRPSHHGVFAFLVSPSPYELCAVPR

[35] = test system: MDA-MB-231; assay: Antiproliferative activity against human MDA-MB-231 cells assessed as decrease in spheroid number at 3.2 to 51.2 uM incubated for 10 days; format: functional, cell-based; details: dose 3.2-51.2 µM, time 10.0 day
[36] = test system: MDA-MB-231; assay: Antitumor activity against human MDA-MB-231 cells implanted in BALB/c mouse assessed as reduction in tumor formation ratio administered drug pretreated cells subcutaneously and observed after 2 weeks; format: functional, cell-based; details: route sc
[37] = test system: MDA-MB-231; assay: Inhibition of cell stemness in human MDA-MB-231 cells assessed as reduction in P-gP expression at 0.8 to 51.2 uM by western blot analysis; format: functional, cell-based; details: dose 0.8-51.2 µM
[38] = test system: MCF7; assay: Inhibition of cell invasion of human MCF7 cells at 0.8 to 51.2 uM incubated for 48 hrs by transwell invasion assay; format: functional, cell-based; details: dose 0.8-51.2 µM
[39] = test system: MDA-MB-231; assay: Inhibition of cell stemness in human MDA-MB-231 cells assessed as reduction in OCT4 expression at 0.8 to 51.2 uM by western blot analysis; format: functional, cell-based; details: dose 0.8-51.2 µM
[40] = target: Cytochrome P450 2C9 (Homo sapiens, UniProt P11712); assay: Inhibition of human recombinant CYP2C9 using Luciferin CEE as substrate incubated for 30 mins in presence of NADPH by luminescence based assay; format: ADME
Sequence of Cytochrome P450 2C9 (P11712 whole entry): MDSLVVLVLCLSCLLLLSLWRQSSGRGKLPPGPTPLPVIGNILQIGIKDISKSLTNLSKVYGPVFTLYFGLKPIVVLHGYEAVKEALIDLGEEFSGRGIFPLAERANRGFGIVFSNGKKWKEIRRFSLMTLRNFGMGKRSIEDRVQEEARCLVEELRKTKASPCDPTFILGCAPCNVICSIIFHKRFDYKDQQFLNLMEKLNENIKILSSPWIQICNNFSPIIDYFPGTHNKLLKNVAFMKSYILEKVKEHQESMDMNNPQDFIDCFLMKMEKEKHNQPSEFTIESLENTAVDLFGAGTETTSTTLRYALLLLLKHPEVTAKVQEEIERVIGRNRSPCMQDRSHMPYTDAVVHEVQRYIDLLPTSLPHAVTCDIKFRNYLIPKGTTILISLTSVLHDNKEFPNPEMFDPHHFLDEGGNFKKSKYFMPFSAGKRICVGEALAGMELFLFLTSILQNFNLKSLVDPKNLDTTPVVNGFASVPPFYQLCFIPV

[41] = test system: MCF7; assay: Inhibition of cell stemness in human MCF7 cells assessed as reduction in Nanog expression at 0.8 to 51.2 uM by western blot analysis; format: functional, cell-based; details: dose 0.8-51.2 µM
[42] = test system: MDA-MB-231; assay: Antiproliferative activity against human MDA-MB-231 cells assessed as cell growth inhibition incubated for 72 hrs by MTT assay; format: functional, cell-based; details: MDA-MB-231, 72 h
[43] = test system: MCF7; assay: Inhibition of cell stemness in human MCF7 cells assessed as reduction in OCT4 expression at 0.8 to 51.2 uM by western blot analysis; format: functional, cell-based; details: dose 0.8-51.2 µM
[44] = Stability in mouse liver microsomes assessed as half life at 1 uM incubated upto 60 mins in presence of NADPH by LC-MS/MS analysis; format: ADME, Microsome
[45] = target: T1, Cytochrome P450 4Z1 (Homo sapiens, UniProt Q86W10); assay: Inhibition of CYP4Z1 in human HEK293T cells using Luciferin-BE as substrate at 10 uM incubated for 30 mins in presence of NADPH by luminescence based assay relative to control; format: ADME, cell-based; details: HEK-293T, 0.5 h
T1 sequence (Q86W10 whole entry): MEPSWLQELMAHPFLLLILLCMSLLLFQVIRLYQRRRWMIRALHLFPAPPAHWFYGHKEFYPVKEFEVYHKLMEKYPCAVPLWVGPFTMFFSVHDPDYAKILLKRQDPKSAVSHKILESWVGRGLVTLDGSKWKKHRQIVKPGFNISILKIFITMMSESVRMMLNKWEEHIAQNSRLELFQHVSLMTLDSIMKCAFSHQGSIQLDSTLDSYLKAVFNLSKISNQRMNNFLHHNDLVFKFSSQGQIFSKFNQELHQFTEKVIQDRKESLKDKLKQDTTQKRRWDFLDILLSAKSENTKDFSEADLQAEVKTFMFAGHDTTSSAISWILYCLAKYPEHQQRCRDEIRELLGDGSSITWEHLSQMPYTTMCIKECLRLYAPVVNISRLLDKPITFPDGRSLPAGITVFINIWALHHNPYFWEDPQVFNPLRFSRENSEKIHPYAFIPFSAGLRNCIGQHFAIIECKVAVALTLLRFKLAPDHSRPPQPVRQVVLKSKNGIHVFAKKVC

[46] = target: T1, Cytochrome P450 4Z1; assay: Inhibition of CYP4Z1 in human HEK293T cells using Luciferin-BE as substrate at 1 uM incubated for 30 mins in presence of NADPH by luminescence based assay relative to control; format: ADME, cell-based; details: HEK-293T, 0.5 h

CCOC(=O)CCCc1ccc(N/C=N/O)cc1
inhibition [1]: Dose-Dependent Effect
Activity [2]: Active
inhibition [3]: Active
Activity [4]: Active
Activity [5]: Active
Activity [6]: Active
Activity [7]: Non-Toxic
Activity [8]: Active
inhibition [9]: Dose-Dependent Effect
Activity [10]: Dose-Dependent Effect
inhibition [11]: Dose-Dependent Effect
Activity [12]: Active
half-life at 40 µM [13]: 24.6 min
Activity [14]: inactive
inhibition [15]: Dose-Dependent Effect
Activity [16]: Dose-Dependent Effect
Activity [17]: Active
inhibition [18]: Dose-Dependent Effect
inhibition [19]: Dose-Dependent Effect
inhibition [20]: Dose-Dependent Effect
Activity [21]: Dose-Dependent Effect
Activity [22]: Active
pIC50 [23]: < 5.00
inhibition [24]: Dose-Dependent Effect
inhibition [25]: Dose-Dependent Effect
Activity [26]: inactive
Activity [27]: Dose-Dependent Effect
inhibition [28]: Dose-Dependent Effect
pIC50 [29]: 6.32
Activity [30]: Dose-Dependent Effect
Activity [31]: Active
Activity [32]: Active
Activity [33]: Active
pIC50 [34]: < 5.00
Activity [35]: Dose-Dependent Effect
Activity [36]: Active
inhibition [37]: Dose-Dependent Effect
inhibition [38]: Active
inhibition [39]: Dose-Dependent Effect
pIC50 [40]: < 5.00
inhibition [41]: Dose-Dependent Effect
pIC50 [42]: 6.32
inhibition [43]: Dose-Dependent Effect
half-life at 1 µM [44]: 12.8 min

CCc1ccc(N/C=N/O)cc1
inhibition at 10 µM [45]: 72.8%
inhibition at 1 µM [46]: 33.6%
